Laboratory results: US20230257393A1, “MACROMOLECULE-SUPPORTED THIENOAZEPINE COMPOUNDS, AND USES THEREOF” (BOLT BIOTHERAPEUTICS, INC., priority 2020, published 2023)
Like-named read-outs stand apart in the source and are kept apart here.

Key:
human TLR8 = molecular target: T1, human TLR8 (Homo sapiens, UniProt Q9NR97); test: HEK Reporter Assay, HEK293 NFKB reporter cells expressing human TLR8; format: cell-based; conditions: read-out: HEK293 hTLR8 EC50
T1 construct: host or cells: HEK293 reporter cells
T1 sequence (Q9NR97 27-1041): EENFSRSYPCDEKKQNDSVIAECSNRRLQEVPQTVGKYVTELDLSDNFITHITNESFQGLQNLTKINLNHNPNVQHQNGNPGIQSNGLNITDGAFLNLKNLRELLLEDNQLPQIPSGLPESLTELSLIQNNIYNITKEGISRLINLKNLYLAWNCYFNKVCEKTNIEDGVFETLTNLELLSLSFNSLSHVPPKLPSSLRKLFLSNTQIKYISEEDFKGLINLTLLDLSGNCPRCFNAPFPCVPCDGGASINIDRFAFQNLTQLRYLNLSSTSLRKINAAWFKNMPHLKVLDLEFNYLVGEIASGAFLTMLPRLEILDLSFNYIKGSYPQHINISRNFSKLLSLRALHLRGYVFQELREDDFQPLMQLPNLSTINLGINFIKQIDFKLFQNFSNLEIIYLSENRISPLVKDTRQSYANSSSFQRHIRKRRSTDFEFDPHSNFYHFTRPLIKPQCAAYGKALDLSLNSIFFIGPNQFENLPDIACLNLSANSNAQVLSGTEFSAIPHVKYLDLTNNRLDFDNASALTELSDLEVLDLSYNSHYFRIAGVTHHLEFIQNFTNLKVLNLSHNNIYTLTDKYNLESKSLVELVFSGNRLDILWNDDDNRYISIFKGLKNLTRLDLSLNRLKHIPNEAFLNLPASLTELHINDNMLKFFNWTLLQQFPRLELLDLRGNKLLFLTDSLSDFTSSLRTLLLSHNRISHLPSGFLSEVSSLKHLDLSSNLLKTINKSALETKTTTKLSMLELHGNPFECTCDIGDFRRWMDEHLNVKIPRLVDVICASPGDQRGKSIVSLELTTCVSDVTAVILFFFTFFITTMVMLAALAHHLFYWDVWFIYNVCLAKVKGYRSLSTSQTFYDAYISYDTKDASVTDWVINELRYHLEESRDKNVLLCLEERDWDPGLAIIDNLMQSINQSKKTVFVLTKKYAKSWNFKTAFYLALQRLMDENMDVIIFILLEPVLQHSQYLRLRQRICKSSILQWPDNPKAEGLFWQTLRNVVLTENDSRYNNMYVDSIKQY
Procedure: (§1) Each compound was synthesized, purified, and characterized by mass spectrometry and shown to have the mass indicated. Additional experimental procedures are found in the Examples. Activity against HEK293 NFKB reporter cells expressing human TLR7 or human TLR8 was measured according to Example 202.
(§2) HEK293 reporter cells expressing human TLR7 or human TLR8 were purchased from Invivogen and vendor protocols were followed for cellular propagation and experimentation. Briefly, cells were grown to 80-85% confluence at 5% CO2 in DMEM supplemented with 10% FBS, Zeocin, and Blasticidin. Cells were then seeded in 96-well flat plates at 4×10^4 cells/well with substrate containing HEK detection medium and immunostimulatory molecules. Activity was measured using a plate reader at 620-655 nm wavelength.

human TLR7 = molecular target: T2, human TLR7 (Homo sapiens, UniProt Q9NYK1); test: HEK Reporter Assay, HEK293 NFKB reporter cells expressing human TLR7; format: cell-based; conditions: read-out: HEK293 hTLR7 EC50
T2 construct: host or cells: HEK293 reporter cells
T2 sequence (Q9NYK1 27-1049): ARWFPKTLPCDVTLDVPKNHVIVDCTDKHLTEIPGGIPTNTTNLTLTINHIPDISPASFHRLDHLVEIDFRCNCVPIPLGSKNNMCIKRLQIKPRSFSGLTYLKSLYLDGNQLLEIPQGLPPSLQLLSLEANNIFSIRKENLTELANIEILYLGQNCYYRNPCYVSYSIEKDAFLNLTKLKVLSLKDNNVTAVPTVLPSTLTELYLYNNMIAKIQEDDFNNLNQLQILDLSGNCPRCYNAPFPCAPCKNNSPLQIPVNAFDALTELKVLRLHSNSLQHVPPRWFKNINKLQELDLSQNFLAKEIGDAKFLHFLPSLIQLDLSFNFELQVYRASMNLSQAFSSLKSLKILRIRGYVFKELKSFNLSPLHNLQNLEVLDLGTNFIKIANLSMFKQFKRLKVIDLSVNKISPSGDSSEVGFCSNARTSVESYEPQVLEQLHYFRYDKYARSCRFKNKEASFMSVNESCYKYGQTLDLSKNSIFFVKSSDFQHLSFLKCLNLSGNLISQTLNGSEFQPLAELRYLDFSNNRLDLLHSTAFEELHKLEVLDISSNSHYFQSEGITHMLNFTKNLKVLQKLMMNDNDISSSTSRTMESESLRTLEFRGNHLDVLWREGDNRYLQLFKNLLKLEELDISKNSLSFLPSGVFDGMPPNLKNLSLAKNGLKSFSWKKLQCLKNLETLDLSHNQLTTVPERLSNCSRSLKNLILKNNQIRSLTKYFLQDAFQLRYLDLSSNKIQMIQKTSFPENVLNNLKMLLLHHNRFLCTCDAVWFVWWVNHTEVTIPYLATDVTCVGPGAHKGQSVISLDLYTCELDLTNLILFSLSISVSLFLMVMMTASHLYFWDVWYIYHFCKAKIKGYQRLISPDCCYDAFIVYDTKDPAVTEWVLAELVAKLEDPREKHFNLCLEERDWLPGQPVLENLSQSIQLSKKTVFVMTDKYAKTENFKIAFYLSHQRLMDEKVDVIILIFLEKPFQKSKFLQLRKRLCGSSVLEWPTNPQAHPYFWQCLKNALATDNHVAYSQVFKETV
Procedure: as §1, §2

EC50 (human TLR8; Table 1a) [µM] | EC50 (human TLR7; Table 1a) [µM] | Compound | also measured
> 9 | > 9 | CCCN(CCC)C(=O)C1=Cc2sc(C(=O)O)cc2N=C(N)C1 [TAZ-22, 5-amino-7-(dipropylcarbamoyl)-6H-thieno[3,2-b]azepine-2-carboxylic acid] | –
> 9 | > 9 | CCCN(CCC)C(=O)C1=Cc2sc(C(=O)Nc3ccccc3)cc2N=C(N)C1 [TAZ-23, 5-amino-N2-phenyl-N7,N7-dipropyl-6H-thieno [3,2-b]azepine-2,7-dicarboxamide] | –
> 9 | > 9 | CCCN(CCC)C(=O)C1=Cc2sc(C(=O)NCC)cc2N=C(N)C1 [TAZ-24, 5-amino-N2-ethyl-N7,N7-dipropyl-6H-thieno[3,2-b]azepine-2,7-dicarboxamide] | –
> 9 | > 9 | CCCN(CCC)C(=O)C1=Cc2sc(Cc3ccccc3)cc2N=C(N)C1 [TAZ-26, 5-amino-2-benzyl-N,N-dipropyl-6H-thieno[3,2-b] azepine-7-carboxamide] | –
> 9 | > 9 | CCCN(CCC)C(=O)C1=Cc2sc(C(=O)Nc3cncnc3)cc2N=C(N)C1 [TAZ-27, 5-amino-N7,N7-dipropyl-N2-pyrimidin-5-yl-6H-thieno[3,2-b]azepine-2,7-dicarboxamide] | –
> 9 | > 9 | CCCN(CCC)C(=O)C1=Cc2sc3ccccc3c2N=C(N)C1 [TAZ-28, 2-amino-N,N-dipropyl-3H-benzo[4,5]thieno[3,2-b]azepine-4-carboxamide] | –
> 9 | > 9 | CCCN(Cc1ccc(CNC(=O)OC(C)(C)C)cc1)C(=O)C1=Cc2sccc2N=C(N)C1 [TAZ-29, tert-butyl (4-((5-amino-N-propyl-6H-thieno[3,2-b]azepine-7-carboxamido)methyl)benzyl)carbamate] | –

The remaining lines, values behind:

Compound | EC50 (human TLR8; Table 1a) [µM] | EC50 (human TLR7; Table 1a) [µM] | also measured
CCCN(CCC)C(=O)C1=Cc2sc(C(=O)Nc3ccc(N4CCC(C(=O)NCCNC(=O)OC(C)(C)C)CC4)nc3)cc2N=C(N)C1 [TAZ-3, tert-butyl (2-(1-(5-(5-amino-7-(dipropylcarbamoyl)-6H-thieno[3,2-b]azepine-2-carboxamido)pyridin-2-yl)piperidine-4-carboxamido)ethyl)carbamate] | > 9 | > 9 | –
CCCN(CCC)C(=O)C1=Cc2sc(-c3cccc(S(=O)(=O)N4CC(CO)C4)c3)cc2N=C(N)C1 [TAZ-4, 5-amino-2-[3-[3-(hydroxymethyl)azetidin-1-yl]sulfonylphenyl]-N,N-dipropyl-6H-thieno[3,2-b]azepine-7-carboxamide] | > 9 | > 9 | –
CCCN(CCC)C(=O)C1=Cc2sc(C)cc2N=C(N)C1 [TAZ-7, 5-amino-2-methyl-N,N-dipropyl-6H-thieno[3,2-b]azepine-7-carboxamide] | > 9 | > 9 | –
CCCN(CCCNC(=O)OC(C)(C)C)C(=O)C1=Cc2sc(Br)cc2N=C(N)C1 [TAZ-9, tert-butyl N-[3-[(5-amino-2-bromo-6H-thieno[3,2-b]azepine-7-carbonyl)-propyl-amino]propyl]carbamate] | > 9 | > 9 | –
CCCN(CCCN)C(=O)C1=Cc2sccc2N=C(N)C1 [TAZ-11, 5-amino-N-(3-aminopropyl)-N-propyl-6H-thieno[3,2-b]azepine-7-carboxamide] | > 9 | > 9 | –
CCCN(CCC)C(=O)C1=Cc2sc(-c3cnn(S(=O)(=O)N4CC(CO)C4)c3)cc2N=C(N)C1 [TAZ-12, 5-amino-2-[1-[3-(hydroxymethyl)azetidin-1-yl]sulfonylpyrazol-4-yl]-N,N-dipropyl-6H-thieno[3,2-b]azepine-7-carboxamide] | > 9 | > 9 | –
CCCN(CCC)C(=O)C1=Cc2sc(CCCCCNC(=O)OC(C)(C)C)cc2N=C(N)C1 [TAZ-13, tert-butyl N-[5-[5-amino-7-(dipropylcarbamoyl)-6H-thieno[3,2-b]azepin-2-yl]pentyl]carbamate] | > 9 | > 9 | –
CCCN(CCC)C(=O)C1=Cc2sc(-c3ccccc3)cc2N=C(N)C1 [TAZ-18, 5-amino-2-phenyl-N,N-dipropyl-6H-thieno[3,2-b]azepine-7-carboxamide] | > 9 | > 9 | –
CCCN(CCC)C(=O)C1=Cc2sc(-c3cnn(COCC[Si](C)(C)C)c3)cc2N=C(N)C1 [TAZ-19, 5-amino-N,N-dipropyl-2-(1-((2-(trimethylsilyl)ethoxy)methyl)-1H-pyrazol-4-yl)-6H-thieno[3,2-b]azepine-7-carboxamide] | > 9 | > 9 | –
CCCN(CCC)C(=O)C1=Cc2sc(C(=O)OC)cc2N=C(N)C1 [TAZ-20, methyl 5-amino-7-(dipropylcarbamoyl)-6H-thieno[3,2-b]azepine-2-carboxylate] | > 9 | > 9 | –
CCCN(CCC)C(=O)C1=Cc2sc(-c3cn[nH]c3)cc2N=C(N)C1 [TAZ-21, 5-amino-N,N-dipropyl-2-(1H-pyrazol-4-yl)-6H-thieno[3,2-b]azepine-7-carboxamide] | > 9 | > 9 | –
CCCN(CCCc1ccc(CN2CCNCC2)cc1)C(=O)C1=Cc2sccc2N=C(N)C1 [TAZ-37] | – | – | EC50 (human TLR8; Table 1b): 2.94 µM; EC50 (human TLR7; Table 1b): > 9 µM
CCCN(OCC)C(=O)C1=Cc2sc(COCCCN)cc2N=C(N)C1 [TAZ-73] | – | – | EC50 (human TLR8; Table 1b): 2.98 µM; EC50 (human TLR7; Table 1b): > 9 µM
CCCN(CCC)C(=O)C1=Cc2sc(COCCNC(=O)OC(C)(C)C)cc2N=C(N)C1 [TAZ-80] | – | – | EC50 (human TLR8; Table 1b): 3.79 µM; EC50 (human TLR7; Table 1b): 4 µM
CN(C)Cc1ccc(CN(CCC(F)(F)F)C(=O)C2=Cc3sc(CCCCCN)cc3N=C(N)C2)cc1 [TAZ-117] | – | – | EC50 (human TLR8; Table 1c): ≥ 9 µM; EC50 (human TLR7; Table 1c): ≥ 9 µM
CCCN(CCC)C(=O)C1=Cc2sc(CC(=O)NCCN)cc2N=C(N)C1 [TAZ-120] | – | – | EC50 (human TLR8; Table 1c): ≥ 9 µM; EC50 (human TLR7; Table 1c): ≥ 9 µM
CCCN(Cc1cnc(CN(C)C)c(C(F)(F)F)c1)C(=O)C1=Cc2sc(CCCCCNC(=O)OC(C)(C)C)cc2N=C(N)C1 [TAZ-128] | – | – | EC50 (human TLR8; Table 1c): ≥ 9 µM; EC50 (human TLR7; Table 1c): ≥ 9 µM
CCCN(Cc1ccc(CN(C)C)c(C(F)(F)F)n1)C(=O)C1=Cc2sc(CCCCCNC(=O)OC(C)(C)C)cc2N=C(N)C1 [TAZ-146] | – | – | EC50 (human TLR8; Table 1c): ≥ 9 µM; EC50 (human TLR7; Table 1c): ≥ 9 µM
CCCN(CCCNC(=O)OC1CCC1)C(=O)C1=Cc2sc(C#CC3CNC3)cc2N=C(N)C1 [TAZ-192] | – | – | EC50 (human TLR8; Table 1c): 3.48 µM; EC50 (human TLR7; Table 1c): 0.824 µM
CCCN(OCC)C(=O)C1=Cc2sc(C#CC3CNC3)cc2N=C(N)C1 [TAZ-193] | – | – | EC50 (human TLR8; Table 1c): 1.52 µM; EC50 (human TLR7; Table 1c): 3.36 µM
